Laboratory results from paper PMC6178183, “Development of a HPLC-MS/MS Method to Determine 11 Bioactive Compounds in Tongmai Yangxin Pill and Application to a Pharmacokinetic Study in Rats” (Evidence-based Complementary and Alternative Medicine : eCAM, 2018).
Where “and” joins values, the source holds several entries; their conditions need not be identical. Equal values may be shown once.

Key:
[1] = system: human umbilical vein endothelial cells; parameters: method as in doi:10.1039/C6RA19212B; details: human umbilical vein endothelial cells in zebrafish; cited from earlier work
[2] = Stability of analytes in rat plasma QC samples under storage conditions; type: in vitro ADME; details: n=6, gallic acid, ononin, schisandrin, stilbene glycoside, liquiritigenin, rhein, verbascoside; for Measured Concentration, auto-sampler for 12 h: prepared rat plasma samples; for Measured Concentration, -70°C for 14 days / Measured Concentration, room temperature for 6 h / Measured Concentration, three freeze-thaw cycles: rat plasma
Experimental: Quality control (QC) samples at three concentrations (low, medium, and high concentration) were made up of appropriate mixed standard solutions with blank blood sample as calibration solutions to meet the required concentrations. All the solutions were kept at 4°C.
The stability of analytes in plasma samples was determined by analyzing QC samples of three concentration levels at different conditions: stored at autosampler for 12 h, at room temperature for 6 h, under three freeze-thaw cycles and stored at -70°C for 14 days. All stability studies were measured in six replicates.

[3] = Pharmacokinetic study in rats after oral administration of TMYX extract (HPLC-MS/MS of plasma); type: in vivo, Sprague–Dawley rats; details: rat plasma; for AUC(0-inf) / half-life / AUC / k el: male, Sprague-Dawley; for AUC: read-out: AUC (0-tn); for k el: read-out: K e (converted); for T max1: n=6, mean ± SD
Experimental: The HPLC-MS/MS system consists of an Agilent 1200 high-performance liquid chromatography coupled with an Aglient 6430 series triple quadrupole mass spectrometer with an electrospray ionization (ESI) source. The chromatographic separation was achieved on a CORTECS C18 column (4.6 mm × 150 mm, 2.7 μm), and the column temperature was kept at 30°C. Mobile phases which consisted of 0.1% formic acid in water (A) and acetonitrile (B) were used in the following gradient elution method: 0-10 min, 10%-85% B; 10-13 min, 85%-95% B; 13-19 min, 95%-95% B. The flow rate was set at 0.3 mL/min, and the injection volume was 10 μL. All data were analyzed by Mass Hunter workstation software (Agilent Technologies, USA).
The mass spectrometer was carried out in both positive and negative ionization multiple-reaction monitoring (MRM) mode. The source parameters were as follows: the capillary voltage set at 300 V for positive ionization mode and -300 V for negative ionization mode, the drying gas temperature was 320°C, the flow was 11 L/min, and nebulizing gas pressure was 30 psi.
The plasma (100 μL) was spiked with 20 μL of methanol, 20 μL of the IS (icariin, 1 μg/mL), and 20 μL of formic acid and then vortex-mixed. The mixture was extracted with 800 μL of ethyl acetate by vortex mixing for 5 min at room temperature. After centrifugation at 14,000 rpm for 10 min, the supernatant was collected to a clean tube and evaporated to dryness under a nitrogen stream. The residue was reconstituted in 50 μL of 50% methanol, vortexed for 5 min, and centrifuged at 14,000 rpm for 10 min. Finally, 10 μL supernatant was injected into the LC-MS/MS system for analysis.
Male Sprague–Dawley rats (230-250 g) were obtained from Beijing HFK Experimental Animal Technology Co., Ltd. The rats were maintained under the control environmental conditions and they fasted for 12 h with free access to water before the experiments. TMYX extracts were dissolved in CMC-Na and administrated orally to rats at 8.3 g/kg. The blood samples (200 μL) were collected from the rat fossa orbitalis vein at 0, 0.03, 0.083, 0.17, 0.25, 0.5, 1, 2, 4, 6, 8, 10, 12, 24, 36, and 48 h after oral administration to heparinized tubes. And then the blood samples were centrifuged at 7,000 rpm for 10 min to get the plasma sample immediately. Finally, the plasma obtained was stored at −70°C until analysis. Pharmacokinetic parameters were calculated by the computer program “Drug and Statistics 2.0” (DAS 2.0) (Medical College of Wannan, China).

[4] = parameters: method as in PMID 26771134; details: rat plasma, oral Radix glycyrrhizae or combination of Radix glycyrrhizae and Ramulus cinnamomi; cited from earlier work
[5] = parameters: method as in PMID 25943824; details: active ingredients of TMYX with high R values; cited from earlier work
[6] = high QC: spiked 2000 ng/mL glycyrrhizic acid, 1000 liquiritin, 200 emodin, 100 isoliquiritigenin
[7] = low QC: spiked 20 ng/mL glycyrrhizic acid, 10 liquiritin, 2 emodin, 1 isoliquiritigenin
[8] = medium QC: spiked 200 ng/mL glycyrrhizic acid, 100 liquiritin, 20 emodin, 10 isoliquiritigenin
[9] = oral TMYX extract 8.3 g/kg single dose, n=6
[10] = oral TMYX extract 8.3 g/kg single dose
[11] = second peak, oral TMYX extract 8.3 g/kg single dose, n=6

Row | SMILES | proliferation and angiogenesis [1] | Measured Concentration, auto-sampler for 12 h [2, 6] [ng/mL] | Measured Concentration, auto-sampler for 12 h [2, 7] [ng/mL] | Measured Concentration, auto-sampler for 12 h [2, 8] [ng/mL] | Measured Concentration, -70°C for 14 days [2, 6] [ng/mL] | Measured Concentration, room temperature for 6 h [2, 6] [ng/mL] | Measured Concentration, three freeze-thaw cycles [2, 6] [ng/mL] | Measured Concentration, -70°C for 14 days [2, 7] [ng/mL] | Measured Concentration, room temperature for 6 h [2, 7] [ng/mL] | Measured Concentration, three freeze-thaw cycles [2, 7] [ng/mL] | Measured Concentration, -70°C for 14 days [2, 8] [ng/mL] | Measured Concentration, room temperature for 6 h [2, 8] [ng/mL] | Measured Concentration, three freeze-thaw cycles [2, 8] [ng/mL] | AUC(0-inf) [3, 9] [ng·h/mL] | half-life [3, 9] [h] | AUC [3, 9] [ng·h/mL] | k el [3, 9] [s⁻¹] | C max1 [3, 9] [ng/mL] | T max1 [3, 10] | antiinflammatory effects [5] | other results
1 | CC(C)=CCc1cc(-c2oc3cc(O)c(CC=C(C)C)c(O)c3c(=O)c2O)ccc1O [glyasperin A] | promote proliferation and angiogenesis |  |  |  |  |  |  |  |  |  |  |  |  |  |  |  |  |  |  |  | 
2 | COc1c(CC=C(C)C)c(O)cc2oc(=O)c(-c3ccc(O)cc3O)cc12 [glycycoumarin] | promote proliferation and angiogenesis |  |  |  |  |  |  |  |  |  |  |  |  |  |  |  |  |  |  |  | 
3 | CC(C)=CCc1c(O)ccc(-c2coc3cc(O)cc(O)c3c2=O)c1O [licoisoflavone A] | promote proliferation and angiogenesis |  |  |  |  |  |  |  |  |  |  |  |  |  |  |  |  |  |  |  | 
4 | COc1cc2c(c(OC)c1CC=C(C)C)C(=O)[C@H](c1ccc(O)c(CC=C(C)C)c1O)CO2 [licorisoflavan A] | promote proliferation and angiogenesis |  |  |  |  |  |  |  |  |  |  |  |  |  |  |  |  |  |  |  | 
5 | O=C1C[C@@H](c2ccc(O)cc2)Oc2cc(O)ccc21 [liquiritigenin] |  | 92.65 ± 0.68 | 0.87 ± 0.01 | 8.63 ± 0.23 | 91.88 ± 0.86 | 112.69 ± 1.30 | 92.59 ± 0.63 | 0.88 ± 0.02 | 0.87 ± 0.01 | 0.89 ± 0.02 | 9.26 ± 0.08 | 10.82 ± 0.58 | 8.99 ± 0.07 | 333 ± 142 | 12.7 ± 7.04 | 315 ± 130 | 0.000139 | 37.8 ± 24.1 | 0.20 h and 0.20 ± 0.07 h |  | peaks in the mean plasma concentration-time profile ([3]; oral TMYX extract 8.3 g/kg): double peaks; C max2 [3, 11]: 21.0 ± 15.3 ng/mL; T max2 [3, 11]: 7.20 h and 7.20 ± 3.35 h; peaks in plasma concentration-time profile [4]: One peak
6 | COc1ccc(-c2coc3cc(O[C@@H]4O[C@H](CO)[C@@H](O)[C@H](O)[C@H]4O)ccc3c2=O)cc1 [ononin] |  | 195.34 ± 4.30 | 1.83 ± 0.01 | 18.84 ± 0.62 | 200.23 ± 3.89 | 216.32 ± 0.91 | 191.28 ± 2.36 | 1.95 ± 0.01 | 2.02 ± 0.03 | 1.85 ± 0.01 | 18.51 ± 0.15 | 20.57 ± 0.26 | 18.71 ± 0.26 | 69.4 ± 28.5 | 2.85 ± 1.4 | 58.2 ± 20.2 | 0.000103 | 14.4 ± 6.8 | 0.46 ± 0.10 h | exert antiinflammatory effects in a dose-dependent manner | 
7 | COc1cc2c(c(OC)c1OC)-c1c(cc(OC)c(OC)c1OC)C[C@](C)(O)[C@@H](C)C2 [schisandrin] |  | 196.02 ± 2.10 | 1.83 ± 0.02 | 18.35 ± 0.09 | 183.83 ± 1.00 | 194.61 ± 1.13 | 189.32 ± 1.74 | 1.77 ± 0.03 | 2.00 ± 0.04 | 1.71 ± 0.01 | 17.86 ± 0.20 | 21.15 ± 0.50 | 18.28 ± 0.23 | 473 ± 321 | 2.73 ± 1.54 | 411 ± 239 | 9.44e-05 | 92.6 ± 53.0 | 1.00 ± 0.92 h | exert antiinflammatory effects in a dose-dependent manner | 
8 | OC[C@H]1O[C@@H](Oc2c(O)cc(O)cc2/C=C/c2ccc(O)cc2)[C@H](O)[C@@H](O)[C@@H]1O [stilbene glycoside] |  | 182.40 ± 1.23 | 1.89 ± 0.00 | 19.00 ± 0.64 | 203.34 ± 1.39 | 202.79 ± 12.80 | 200.45 ± 2.10 | 1.99 ± 0.01 | 1.82 ± 0.01 | 2.00 ± 0.03 | 20.01 ± 0.31 | 20.88 ± 1.19 | 19.87 ± 1.43 | 298 ± 185 | 1.99 ± 1.31 | 284 ± 189 | 0.000125 | 99.1 ± 27.1 | 0.50 ± 0.31 h | exert antiinflammatory effects in a dose-dependent manner | 
